Measured values: patent US4755594A, “N^6 -substituted adenosines” (Warner-Lambert Company, priority 1986, dated 1988)

Legend:
[1] = Mouse Activity and Screen Test Procedure (MAST): inhibition of spontaneous locomotion; format: in vivo, Swiss-Webster male mice; settings: IP, 1 h, read-out: Inhibition of motor activity
Text: The compounds of the invention are new chemical substances which are useful as pharmaceutical agents for the treatment of psychoses. The antipsychotic activity of representative compounds of the invention was established by the Mouse Activity and Screen Test Procedure (MAST) described below. Animals Nine unfasted Swiss-Webster male mice weighing 20-30 g are equally divided into three groups for each drug dose to be tested. That is, data for each dose level was generated by three separate groups of three mice each. Drugs A minimum of three dose levels (10, 30, and 100 mg/kg) are tested for each drug. Treatments are administered intraperitoneally one hour prior to testing. All dosages are calculated as parent compound and given in volumes of 10 ml/kg. Compounds are dissolved or suspended in 0.2% Methocel. Control animals are injected with Methocel. Testing A two part testing procedure is started one hour postinjection. First, the screen test (ST) is performed (see Pharmac. Biochem. Behav. 6, 351-353, 1977). Briefly this test consists of placing mice on individual wire screens which are then rotated 180 degrees at the start of a 60 second observation period. The number of mice falling off the inverted screen is recorded. Immediately following the screen test, the final phase of testing is initiated by placing each group of three mice in one actophotometer (Life Sciences, 22, 1067-1076, 1978). The actophotometer consists of a cylindrical chamber whose center is occupied by another cylinder which contains the illumination for six photocells located on the perimeter of the chamber. Six light-beam interruptions equal one count. Locomotor activity is recorded by computer at ten minute intervals for 60 minutes. Data The data obtained from the screen test are expressed as percent of mice falling off the screen. Data derived from locomotor activity of drug treated mice are compared to the activity of vehicle treated animals and are expressed as percent inhibition of spontaneous locomotion. All percentages reported for inhibition of locomotion (LI) are based upon data accumulated for one hour. Both phases of testing are graded: A=60-100%; C=31-59%; and N=0-30%. An overall dose rating is obtained by the following criteria: […]

[2] = Conditioned shock avoidance (SIDR), antipsychotic; format: in vivo, male Long-Evans rats; settings: Rattus norvegicus; read-out: ED50 in the SIDR protocol
Protocol: (§1) Representative compounds of the invention (identified in the Examples) were also tested for antipsychotic activity according to the following protocol (SIDR or SIDSM). The noted compound has the indicated ED50 values (mg/kg) and is considered active as an antipsychotic agent in the test procedure.
(§2) Mature male Long-Evans rats (SIDR) or squirrel-monkeys (SIDSM) are conditioned to push a lever in order to avoid a painful electric footshock. If the animals fails to push the lever, he receives a shock every ten seconds until the lever is pushed. Shocks can be terminated by pushing the lever. Thereafter, as long as the lever is pushed at least once every 20 seconds, there will be no shock.
(§3) Each animal acts as its own control; one weekly session is used to establish baseline behavior and another session later in the week is used as a drug session. Once patterns of avoidance are established, the effects of standard and unknown compounds are studied.

[3] = Conditioned shock avoidance (SIDSM), antipsychotic; format: in vivo, squirrel-monkeys; settings: Primates; squirrel-monkey; read-out: ED50 in the SIDSM protocol
Protocol: as §1, §2, §3

| SMILES | inhibition in vivo at 0.3 mg/kg [1] [%] | inhibition in vivo at 1 mg/kg [1] [%] | inhibition in vivo at 3 mg/kg [1] [%] | inhibition in vivo at 10 mg/kg [1] [%] | inhibition in vivo at 30 mg/kg [1] [%] | inhibition in vivo at 100 mg/kg ([1]; 100 mg/kg) [%] | ED50 [2] [mg/kg] | ED50 [3] [mg/kg] | inhibition in vivo at 0.03 mg/kg ([1]; 0.03 mg/kg) [%] | inhibition in vivo at 0.1 mg/kg ([1]; 0.1 mg/kg) [%] |
| --- | --- | --- | --- | --- | --- | --- | --- | --- | --- | --- |
| OC[C@H]1O[C@@H](n2cnc3c(NCC4(c5ccccc5)CC4)ncnc32)[C@H](O)[C@@H]1O [Example 1, N6-((1-Phenylcyclopropyl)methyl)adenosine] | 43 | 48 | 38 | 92 | 98 | 100 | 0.55 | 0.52 |  |  |
| OC[C@H]1O[C@@H](n2cnc3c(NCC4(c5cccc(Cl)c5)CC4)ncnc32)[C@H](O)[C@@H]1O [Example 2, N6-((1-(3-Chlorophenyl)cyclopropyl)methyl)adenosine] |  |  | 19 | 69 | 90 |  |  |  |  |  |
| OC[C@H]1O[C@@H](n2cnc3c(NCC4(c5cccs5)CC4)ncnc32)[C@H](O)[C@@H]1O [Example 3, N6-((1-Thien-2-ylcyclopropyl)methyl)adenosine] | 70 | 85 | 89 | 93 |  |  |  |  | 17 | 40 |
| O[C@@H]1[C@H](O)[C@@H](CCl)O[C@H]1n1cnc2c(NCC3(c4ccccc4)CC3)ncnc21 [Example 5, 5'-Deoxy-5'-chloro-N6-((1-phenylcyclopropyl)methyl)adenosine] |  |  | 16 | 10 | -4 |  |  |  |  |  |
| O[C@@H]1[C@H](O)[C@@H](CCl)O[C@H]1n1cnc2c(NCC3(c4cccs4)CC3)ncnc21 [Example 6, 5'-Chloro-5'-deoxy-N6-((1-thien-2-ylcyclopropyl)methyl)adenosine] |  |  | 11 | 16 | 51 |  |  |  |  |  |
| OC[C@H]1O[C@@H](n2cnc3c(NCC4(c5ccccc5)CCC4)ncnc32)[C@H](O)[C@@H]1O [Example 7, N6-((1-Phenylcyclobutyl)methyl)adenosine] |  | 5 | 21 | 82 |  |  |  |  |  |  |
| OC[C@H]1O[C@@H](n2cnc3c(NCC4(c5cccc(Cl)c5)CCC4)ncnc32)[C@H](O)[C@@H]1O [Example 8, N6-((1-(3-Chlorophenyl)cyclobutyl)methyl)adenosine] |  |  | 22 | 35 | 73 |  |  |  |  |  |
| OC[C@H]1O[C@@H](n2cnc3c(NCC4(c5cccs5)CCC4)ncnc32)[C@H](O)[C@@H]1O [Example 9, N6-((1-Thien-2-ylcyclobutyl)methyl)adenosine] |  |  | 43 | 86 | 94 |  |  |  |  |  |
| OC[C@H]1O[C@@H](n2cnc3c(NCC4(c5ccccc5)CCCC4)ncnc32)[C@H](O)[C@@H]1O [Example 10, N6-((1-Phenylcyclopentyl)methyl)adenosine] |  |  | -7 | 12 | 49 |  |  |  |  |  |
| OC[C@H]1O[C@@H](n2cnc3c(NCC4(c5ccccc5)CCCCC4)ncnc32)[C@H](O)[C@@H]1O [Example 11, N6-((1-Phenylcyclohexyl)methyl)adenosine] |  |  | 15 | -10 | 34 |  |  |  |  |  |
| OC[C@H]1O[C@@H](n2cnc3c(NCC4(c5ccc(Cl)cc5)CC4)ncnc32)[C@H](O)[C@@H]1O [Example 12, N6-((1-(4-Chlorophenyl)cyclopropyl)methyl)adenosine] |  |  | -4 | 5 | 20 |  |  |  |  |  |
